The text below walks through data of ChEMBL document CHEMBL5113535, “The Design, Synthesis, and Evaluation of Novel 9-Arylxanthenedione-Based Allosteric Modulators for the δ-Opioid Receptor” (J Med Chem, 2022).

Molecules are shown by their SMILES.

A word on the EC50: it is the concentration needed to bring the measured effect to its halfway point. The pKb is −log10 of the Kb, conventionally taken in molar units. Low values mean a high Kb, high ones a low Kb.

T1 sequence (P41143 whole entry): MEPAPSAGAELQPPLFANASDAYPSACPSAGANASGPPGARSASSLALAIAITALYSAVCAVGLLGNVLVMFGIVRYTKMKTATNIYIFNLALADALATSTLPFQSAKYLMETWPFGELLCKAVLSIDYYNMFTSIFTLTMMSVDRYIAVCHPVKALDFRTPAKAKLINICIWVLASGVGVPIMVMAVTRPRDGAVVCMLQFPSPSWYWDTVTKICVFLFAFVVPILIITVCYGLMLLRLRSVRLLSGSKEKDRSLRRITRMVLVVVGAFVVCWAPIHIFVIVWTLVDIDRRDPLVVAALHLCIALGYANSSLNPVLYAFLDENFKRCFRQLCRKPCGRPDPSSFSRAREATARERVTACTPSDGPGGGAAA

One assay addresses T1, Delta-type opioid receptor (Homo sapiens, UniProt P41143). Put plainly: Agonist activity at human DOR expressed in CHO cells assessed as […] in ERK1/2 phosphorylation level. It counts as functional, cell-based.
Conditions: not given
With `C=CCN1C[C@H](C)N([C@H](c2ccc(C(=O)NCC)cc2)c2cccc(OC)c2)C[C@H]1C`, the EC50 was 43.7 nM. Take `CN1CC[C@@]2(c3cccc(O)c3)Cc3nc4ccccc4cc3C[C@@H]2C1`: the EC50 is 31.6 nM.

For another assay, the target named is T1, Delta-type opioid receptor. Particulars: CHO, filed as modulator, time 1.0 hrs.
The compound `CC1(C)CC(=O)C2=C(C1)OC1=C(C(=O)CC(C)(C)C1)C2c1ccc(OCC2CCC2)cc1` came in with a negative-log Kb (pKb) of 5.72. The compound `CC1(C)CC(=O)C2=C(C1)OC1=C(C(=O)CC(C)(C)C1)C2c1ccc(OCc2ccccc2Br)cc1` showed a pKb of 5.9. The same measure, in the same setting: under `CC1(C)CC(=O)C2=C(C1)OC1=C(C(=O)CC(C)(C)C1)C2c1ccc(OCc2ccccc2C2CC2)cc1` stands 5.53. Same read-out and setting: under `Cc1ccccc1COc1ccc(C2C3=C(CC(C)(C)CC3=O)OC3=C2C(=O)CC(C)(C)C3)cc1F` stands 6.01; under `CC1CC(=O)C2=C(C1)OC1=C(C(=O)CC(C)C1)C2c1ccc(OCC2CCCCC2)cc1` (configuration not stated), 5.83. Compound `CC1(C)CC(=O)C2=C(C1)OC1=C(C(=O)CC(C)(C)C1)C2c1ccc(OCC2CCCC2)cc1` showed a negative logarithm of the Kb (pKb) of 5.57. The same measure, in the same setting: under `CCc1ccccc1COc1ccc(C2C3=C(CC(C)(C)CC3=O)OC3=C2C(=O)CC(C)(C)C3)cc1` stands 5.5.

For `CC(C)c1ccccc1COc1ccc(C2C3=C(CC(C)(C)CC3=O)OC3=C2C(=O)CC(C)(C)C3)cc1`, the negative logarithm of the Kb (pKb) was found to be 6.08.

`C#Cc1ccccc1COc1ccc(C2C3=C(CC(C)(C)CC3=O)OC3=C2C(=O)CC(C)(C)C3)cc1`: the pKb came to 6.18. For the compound `Cc1ccccc1COc1ccc(C2C3=C(CC(C)(C)CC3=O)OC3=C2C(=O)CC(C)(C)C3)nc1`, the pKb was 4.89.
